Seven compounds from PubChem BioAssay AID2060504 (Molecular Pharmacology Branch, DTP, NCI, 2025) can be followed below.

In the assay the test system is 636577-100-R-J1-PDC complex spheroid viability. Put plainly: Anticancer human tumor 636577-100-R-J1-PDC patient-derived endometrial adenocarcinoma cell line growth inhibition [GQUAD]. As to conditions: for viability, T/C: stronger effect = lower value. An excerpt:
DNA G-quadruplex Stabilizer Agents in Combinations in Complex Spheroids
A high-throughput screen of multi-cell type tumor spheroids was designed to identify active combinations of DNA G-quadruplex stabilizer agents and targeted small molecules. Complex spheroids include a stromal component modeled by human endothelial cells (HUVEC) and fibroblasts modeled by human mesenchymal stem cells (MSCs). The concentration ranges selected for each drug and investigational agent were based upon clinically achievable concentrations if the clinical Cmax of the agent was known.
Compounds. The drugs and investigational agents: pidnarulex (CX-5461; NSC782164), APTO-253 (NSC789042), BRACO-19 (NSC847499), peposertib (NSC802822), ceralasertib (NSC780249), elimusertib (NSC800525), camonsertib (NSC841442), AZD-1390 (NSC803789), olaparib (NSC753686), talazoparib (NSC767125), ART-558 (NSC835418), sotorasib (NSC818433), MRTX-1133 (NSC836407), SN-38 (NSC673596), topotecan (NSC609699), etoposide (NSC141540), doxorubicin (NSC123127), gemcitabine (NSC613327), 5-fluorouracil (NSC19893), paclitaxel (NSC125973), vemurafenib (NSC761431), panobinostat (NSC761190), R-306465 (JNJ-16241199; NSC773264), adavosertib (NSC754352), TP-3654 (NSC805149), carboplatin (NSC241240), KSQ-4279 (NSC840948), and staurosporine (NSC755774) were obtained from the National Cancer Institute (NCI) Developmental Therapeutics Program Chemical Repository (34). The FDA-approved anticancer drug set is available from the NCI Developmental Therapeutics Program. […] The stock solutions were prepared in dimethyl sulfoxide (DMSO, Sigma-Aldrich, St. Louis, MO, cat. D2650) at 800-fold the tested concentration and stored at -70 degrees C prior to their use. All drugs and investigational agents were tested over a range starting from a high concentration at or near the clinical Cmax and decreasing in half-log increments. If the clinical Cmax for an agent had not been determined, the highest concentration tested was 10 microM.
2.3 Cell Culture. All cells were maintained in an incubator at 37 degrees C and 5% CO2 with 95% humidity. The PDC lines were cultured according to standard operating procedures established by the NCI PDMR. All PDCs were thawed and cultured in Matrigel-coated flasks prepared with a working solution of 1X Ham's F-12 nutrient mix, without supplementation (Invitrogen, cat. 11765054), 100 U/mL penicillin-streptomycin (Invitrogen, cat. 15140122), and 2.5% Matrigel (Corning Inc., cat. 354248) for the first three passages. The 857933-349-R-J2-PDC line was cultured in 6C/Colon 1B media, which includes advanced DMEM/F-12 (Thermo Fisher Scientific, cat. 12634028), 10 mM HEPES (Thermo Fisher Scientific, cat. 15630080), 1X GlutaMAX supplement (Thermo Fisher Scientific, cat. 35050061), 0.1 mg/mL primocin (InvivoGen, cat. ant-pm-2), 10% defined fetal bovine serum, heat inactivated (HyClone Laboratories Inc., cat. SH30070.03HI), 50% L-WRN conditioned media (ATCC, cat. CRL-3276), 1.25 mM N-Acetyl-L-cysteine (Sigma-Aldrich, cat. A9165), 10 mM nicotinamide (Sigma-Aldrich, cat. N0636), 1X B-27 supplement (Thermo Fisher Scientific, cat. 17504044), 1X N-2 supplement (Thermo Fisher Scientific, cat. 17502048), 10 microM Y-27632 dihydrochloride (Tocris Bioscience, cat. 1254), and 50 ng/mL human EGF recombinant protein (Thermo Fisher Scientific, cat. PHG0311). The 485176-168-R4-J1-PDC line was cultured in Panc media, which includes all 6C/Colon 1B media components plus 100 ng/mL human FGF-10 (Thermo Fisher Scientific, cat. 100-26), 500 nM SB-431542 (Selleckchem, cat. S1067), and gastrin (Tocris, cat. 3006).
[…]

[1] abbreviates: curve of first compound, second compound 0.0316 µM.
[2] abbreviates: curve of first compound, second compound 0.1 µM.
Setting [3] is: curve of first compound, second compound 0.316 µM.
Where [4] appears, read: curve of first compound, second compound 1 µM.
Setting [5] is: curve of first compound, second compound 3.16 µM.
[6] abbreviates: curve of first compound, second compound 10 µM.
[7] abbreviates: second compound 0.0316 µM, first compound 0.0316 µM.
Where [8] appears, read: second compound 0.0316 µM, first compound 0.1 µM.
Where [9] appears, read: second compound 0.0316 µM, first compound 0.316 µM.
Setting [10] is: second compound 0.0316 µM, first compound 1 µM.
Where [11] appears, read: second compound 0.0316 µM, first compound 3.16 µM.
[12] abbreviates: second compound 0.0316 µM, first compound 10 µM.
Where [13] appears, read: second compound 0.1 µM, first compound 0.0316 µM.
Where [14] appears, read: second compound 0.1 µM, first compound 0.1 µM.
Setting [15] is: second compound 0.1 µM, first compound 0.316 µM.
Setting [16] is: second compound 0.1 µM, first compound 1 µM.
Setting [17] is: second compound 0.1 µM, first compound 3.16 µM.
The mark [18] stands for this setting: second compound 0.1 µM, first compound 10 µM.
The mark [19] stands for this setting: second compound 0.316 µM, first compound 0.0316 µM.
The mark [20] stands for this setting: second compound 0.316 µM, first compound 0.1 µM.
The mark [21] stands for this setting: second compound 0.316 µM, first compound 0.316 µM.
[22] abbreviates: second compound 0.316 µM, first compound 1 µM.
Where [23] appears, read: second compound 0.316 µM, first compound 3.16 µM.
[24] abbreviates: second compound 0.316 µM, first compound 10 µM.
[25] abbreviates: second compound 1 µM, first compound 0.0316 µM.
Setting [26] is: second compound 1 µM, first compound 0.1 µM.
[27] abbreviates: second compound 1 µM, first compound 0.316 µM.
[28] abbreviates: second compound 1 µM, first compound 1 µM.
[29] abbreviates: second compound 1 µM, first compound 3.16 µM.
Setting [30] is: second compound 1 µM, first compound 10 µM.
Where [31] appears, read: second compound 3.16 µM, first compound 0.0316 µM.
Setting [32] is: second compound 3.16 µM, first compound 0.1 µM.
Where [33] appears, read: second compound 3.16 µM, first compound 0.316 µM.
Where [34] appears, read: second compound 3.16 µM, first compound 1 µM.
[35] abbreviates: second compound 3.16 µM, first compound 3.16 µM.
The mark [36] stands for this setting: second compound 3.16 µM, first compound 10 µM.
Setting [37] is: second compound 10 µM, first compound 0.0316 µM.
Setting [38] is: second compound 10 µM, first compound 0.1 µM.
Setting [39] is: second compound 10 µM, first compound 0.316 µM.
Where [40] appears, read: second compound 10 µM, first compound 1 µM.
Where [41] appears, read: second compound 10 µM, first compound 3.16 µM.
Setting [42] is: second compound 10 µM, first compound 10 µM.

Structures are written as SMILES. Where “and” joins values, the source holds several entries; their conditions need not be identical. Equal entries are not always repeated.

One may read the viability, T/C as the result in the treated group divided by that in the control group, in per cent. A word on the IC50: it is the concentration at which inhibition is half-maximal.
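Note: viability read after seven days of drug exposure.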
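Throughout, for viability, T/C: luminescence signal used as a proxy for viable cells; 100% = DMSO vehicle control wells.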

Take `C=CCn1c(=O)c2cnc(Nc3ccc(N4CCN(C)CC4)cc3)nc2n1-c1cccc(C(C)(C)O)n1`: the viability, T/C (compound 0.0316 µM) was 85% and 95.4% and 95.7%; the viability, T/C (compound 0.1 µM) is 83.5% and 87.5% and 102%; the viability, T/C (compound 0.316 µM) is 82.6% and 74.1% and 110%; the viability, T/C (compound 1 µM) is 39.1% and 30.6% and 46.6%; the viability, T/C (compound 3.16 µM) is 16.7% and 15% and 16.4%; the viability, T/C (compound 10 µM) is 11.8% and 9.58% and 9.6%. For the setting “curve of compound”, the half-inhibitory concentration (IC50) is 749 nM and 598 nM and 932 nM.
Regarding `CC(C)(O)C1CCC(Nc2ccc3ncc(-c4cccc(C(F)(F)F)c4)n3n2)CC1` (stereo unspecified), the viability, T/C by setting is: (compound 0.0316 µM) 102% and 104% and 81.5%; (compound 0.1 µM) 86.4% and 84.5% and 92.3%; (compound 0.316 µM) 93.7% and 109% and 93.8%; (compound 1 µM) 67.9% and 78.7% and 42.9%; (compound 3.16 µM) 29.4% and 26.8% and 30.6%; (compound 10 µM) 35.9% and 36.4% and 44.3%. The half-inhibitory concentration (IC50) (curve of compound) is 1790 nM and 2020 nM and 839 nM.
Consider `COc1ncnc(C2CC2)c1-c1ncc2cnn(Cc3ccc(-c4nc(C(F)(F)F)cn4C(C)C)cc3)c2n1`, for which the viability, T/C runs as follows: (compound 0.0316 µM) 72.1% and 66.5% and 79.3%; (compound 0.1 µM) 70% and 60.2% and 82.1%; (compound 0.316 µM) 54.8% and 66.5% and 102%; (compound 1 µM) 72.7% and 57.8% and 88.1%; (compound 3.16 µM) 64.7% and 64.6% and 68%; (compound 10 µM) 59.5% and 68.5% and 65.4%. The concentration for half-maximal inhibition (IC50) (curve of compound) is over 10000 nM.
For the compound `Cc1[nH]c2ccc(F)cc2c1-c1nc2c3cccnc3c3ncccc3c2[nH]1`, the viability, T/C reads like this: (compound 1 µM) 86.1% [middle of 9 runs]; (compound 3.16 µM) 38.6% [middle of 9 runs]. For the same compound, the half-inhibitory concentration (IC50) reads like this: (compound alone, run of 03/18/2024) > 10000 nM and 3070 nM and 3210 nM; (compound alone, run of 03/26/2024) 2.16 µM [middle of 4 runs].
Consider `O=C(NO)c1cnc(N2CCN(S(=O)(=O)c3ccc4ccccc4c3)CC2)nc1`, for which the viability, T/C was 37.6% and 34.2% and 52.9% (compound 0.0316 µM); 16.6% and 16.8% and 20.5% (compound 0.1 µM); 7.21% and 7.67% and 7.55% (compound 0.316 µM); 5.31% and 5.87% and 4.07% (compound 1 µM); 0.18% and 0.1% and 0.17% (compound 3.16 µM); 0.11% (2×) and 0.08% (compound 10 µM). The IC50 (curve of compound) is < 31.6 nM and 34.8 nM.
Turning to `CC1COCCN1c1cc(C2(O)CC3CCC(C2)O3)c2cnn(-c3ccn[nH]3)c2n1` (stereo unspecified) + CN(C)c1ccc(Nc2c3ccc(NC(=O)CCN4CCCC4)cc3nc3cc(NC(=O)CCN4CCCC4)ccc23)cc1, the concentration for half-maximal inhibition (IC50) by setting is: under setting [1], 46.2 nM; under setting [2], 33.6 nM; under setting [3], under 31.6 nM; under setting [4], under 31.6 nM; under setting [5], under 31.6 nM; under setting [6], under 31.6 nM. For the same compound, the viability, T/C is 59.8% under setting [7]; 30.1% under setting [8]; 14.8% under setting [9]; 7.23% under setting [10]; 3% under setting [11]; 0.68% under setting [12]. The viability, T/C under setting [13] is 51.9%; the viability, T/C under setting [14] is 25.7%; the viability, T/C under setting [15] is 15.9%; the viability, T/C under setting [16] is 6.63%; the viability, T/C under setting [17] was 2.93%; the viability, T/C under setting [18] is 0.63%. Further, the viability, T/C is 49.4% under setting [19]; 27.2% under setting [20]; 14.4% under setting [21]; 7.39% under setting [22]; 2.94% under setting [23]; 0.62% under setting [24]. The viability, T/C runs as follows: under setting [25], 44.5%; under setting [26], 24.9%; under setting [27], 13.1%; under setting [28], 7.03%; under setting [29], 2.84%; under setting [30], 0.8%. The viability, T/C is 23.6% under setting [31]; 18.4% under setting [32]; 12.6% under setting [33]; 6.87% under setting [34]; 2.75% under setting [35]; 0.79% under setting [36]. Further, the viability, T/C by setting is: under setting [37], 5.13%; under setting [38], 4.81%; under setting [39], 2.43%; under setting [40], 2.03%; under setting [41], 1.14%; under setting [42], 0.3%.
On to `COc1ccc([C@@H](O)c2cc(-c3ncnc4cc(N5CCOCC5)ccc34)c(F)cc2Cl)nn1` + CN(C)c1ccc(Nc2c3ccc(NC(=O)CCN4CCCC4)cc3nc3cc(NC(=O)CCN4CCCC4)ccc23)cc1, for which the IC50 was 1560 nM under setting [1]; 486 nM under setting [2]; 466 nM under setting [3]; 153 nM under setting [4]; under 31.6 nM under setting [5]; under 31.6 nM under setting [6]. The viability, T/C under setting [7] is 93.7%; the viability, T/C under setting [8] was 98%; the viability, T/C under setting [9] was 88.5%; the viability, T/C under setting [10] is 55.3%; the viability, T/C under setting [11] was 39.1%; the viability, T/C under setting [12] was 20.1%. The viability, T/C reads like this: under setting [13], 102%; under setting [14], 63.5%; under setting [15], 58.3%; under setting [16], 44%; under setting [17], 37%; under setting [18], 19.8%. The viability, T/C is, setting by setting: under setting [19], 77.5%; under setting [20], 77.2%; under setting [21], 61%; under setting [22], 27.6%; under setting [23], 24%; under setting [24], 12.1%. The viability, T/C under setting [25] was 73.2%; the viability, T/C under setting [26] was 47.4%; the viability, T/C under setting [27] is 50.6%; the viability, T/C under setting [28] was 25.5%; the viability, T/C under setting [29] is 17.4%; the viability, T/C under setting [30] is 11.7%. Moreover, the viability, T/C was 35.3% under setting [31]; 40.5% under setting [32]; 24% under setting [33]; 14.5% under setting [34]; 9.36% under setting [35]; 7.69% under setting [36]. For the same compound, the viability, T/C is, setting by setting: under setting [37], 5.37%; under setting [38], 4.81%; under setting [39], 3.18%; under setting [40], 2.32%; under setting [41], 1.95%; under setting [42], 0.58%.
